According to ChEMBL document CHEMBL1144539, “Fluoro-ketopyranosyl nucleosides: synthesis and biological evaluation of 3-fluoro-2-keto-beta-D-glucopyranosyl derivatives of N4-benzoyl cytosine” (Bioorg Med Chem, 2007):
Values after ≈ are worked out from the molar mass of the structure shown.

How the values were obtained:
[1] = Stimulation of proliferation of monkey MA104 cells at 30 ng/mL after 72 hrs relative to control; assay type: functional, Macaca mulatta
[2] = Inhibition of bovine rotavirus RF infectivity following virus attachment to MA 104 cells; assay type: functional, cell-based, Bovine rotavirus strain RF; conditions: Rotavirus A
Caco-2 [3] = experiment: Cytotoxicity against human Caco-2 cells after 72 hrs; assay type: cell-based; conditions: Caco-2, 72 h
Caco-2 [4] = experiment: Growth inhibition of human Caco-2 cells after 72 hrs; assay type: functional, cell-based; conditions: Caco-2, 72 h
[5] = Antiviral activity against bovine rotavirus RF in MA 104 cells assessed as neutralization of virus in solution before cell attachment; assay type: functional, cell-based, Bovine rotavirus strain RF; conditions: Rotavirus A
[6] = Antiviral activity against bovine rotavirus RF in MA104 cells; assay type: functional, cell-based, Bovine rotavirus strain RF; conditions: Rotavirus A

Row | Compound | Activity [1] [%] | IC50 [2] [µg/mL] | IC50 (Caco-2 [3]) [µg/mL] | IC50 (Caco-2 [4]) [µg/mL] | IC50 [5] [µg/mL] | IC50 [6] [µg/mL]
1 | O=C(Nc1ccn(C[C@@H]2O[C@H](CO)[C@@H](O)[C@H](F)C2=O)c(=O)n1)c1ccccc1 | 40 | 70 (≈ 179 µM) | 1500 (≈ 3830 µM) | 2500 (≈ 6390 µM) | 70 (≈ 179 µM) | –
2 | Cc1cn([C@H]2C[C@H](N=[N+]=[N-])[C@@H](CO)O2)c(=O)[nH]c1=O [ZIDOVUDINE] | – | 15 (≈ 56.1 µM) | 15 (≈ 56.1 µM) | 15 (≈ 56.1 µM) | 60 (≈ 225 µM) | 4 (≈ 15 µM)
